Experimental data reported in patent publication US20220362386A1, “LIQUID COMPOSITIONS COMPRISING A LEVODOPA AMINO ACID CONJUGATE AND USES THEREOF” (NeuroDerm, Ltd., priority 2019, published 2022).
Counter-ions that a name gives are not always drawn. Non-standard residues stand in square brackets, D forms with d. Residues, ends and D or L forms follow the SMILES beside them. Dopa = N[C@@H](Cc1ccc(O)c(O)c1)C(=O)O

Assay: physchem
Assay type: physicochemical
Description: The volume of the solution in the bottle was adjusted to 5 ml, either by adding solvent, or be removing any residual solution, after which the bottle was tightly closed and left at 25° C. for stability observation. It is noted that throughout Example 4, the concentrations in the tables below were calculated taking into account the amount of solvent added or the solution removed, in which event, the calculations were performed regarding the 5 ml+(amount removed) as the volume of the solution. It is further noted that throughout this document, unless mentioned otherwise, the stability was measured using the manual visual inspection Bosch apparatus MIH DX, at a magnification of ×1.75.
(§1) The LD-Tyr free base, prepared according to Example 2, was added to a solvent, as detailed in Table 7 below, and neutralized by addition of NaOH. When maximum solubility was observed, the solution was filtered and then transferred to a bottle that was previously weighed and flushed with nitrogen. The volume of the solution in the bottle was adjusted to 5 ml, after which the bottle was tightly closed and left at 25° C. for stability observation.
(§2) When maximum solubility was observed, the solution was filtered and then transferred to a bottle that was previously weighed and flushed with nitrogen. The volume of the solution in the bottle was adjusted to 5 ml, after which the bottle was tightly closed and left at 25° C. for stability observation.
as §2, with “stored” for “left”
as §2, with “stored” for “left”
as §1, with “LD-Lys TFA salt,” for “The LD-Tyr free base,”, “1, and which comprises two equivalents of TFA,” for “2,”, “11” for “7”, “stored” for “left”
as §2, with “As detailed above regarding other solutions, with the LD-Tyr free base when” for “When”
as §1, with “LD-Lys HCl salt,” for “The LD-Tyr free base,”, “3,” for “2,”, “13” for “7”, “by the” for “by”

[1] = solvent 0.75% CD solution, pH 8.65
[2] = solvent 0.63% CD solution, pH 7.71

Compound | Appearance (0.75% CD solution, pH 8.65, 297 mg/ml salt) | Appearance (WFI, pH 8.46, 300 mg/ml salt) | LD-Tyr HCl salt concentration [1] [mg/mL] | LD-Tyr free base Concentration [1] [mg/mL] | LD-Tyr HCl salt concentration (solvent WFI, pH 8.46) [mg/mL] | LD-Tyr free base Concentration (solvent WFI, pH 8.46) [mg/mL] | Appearance (0.2% NaBis in WFI, pH 7.02, 550 mg/ml salt) | Appearance (0.63% CD solution, pH 7.71, 520 mg/ml salt) | solubility thermodynamic (25 °C, aqueous buffer, thermodynamic from solid, solvent 0.2% NaBis in WFI, pH 7.02) [mg/mL] | Appearance (WFI, pH 7.3, 500 mg/ml salt) | LD-Arg free base Concentration (solvent 0.2% NaBis in WFI, pH 7.02) [mg/mL] | LD-Arg HCl salt concentration [2] [mg/mL] | LD-Arg free base Concentration [2] [mg/mL] | LD-Arg HCl salt concentration (solvent WFI, pH 7.3) [mg/mL] | LD-Arg free base Concentration (solvent WFI, pH 7.3) [mg/mL]
N[C@@H](Cc1ccc(O)c(O)c1)C(=O)N[C@@H](Cc1ccc(O)cc1)C(=O)O [LD-Tyr HCl salt] (H-[Dopa]-Tyr-OH) | clear | clear | 297 | 257 | 300 | 260 | – | – | – | – | – | – | – | – | –
N=C(N)NCCC[C@H](NC(=O)[C@@H](N)Cc1ccc(O)c(O)c1)C(=O)O [LD-Arg HCl salt] | – | – | – | – | – | – | clear | clear | 550 | clear | 440 | 520 | 420 | 500 | 390
